Laboratory results reported in patent US20090011442A1, “TB diagnostics based on mycobacterium tuberculosis excretory secretory antigens and their specific immunoglobulins” (priority 2007, published 2009).
Like-named read-outs stand apart in the source and are kept apart here.

Columns and labels:
[1] = test system: mycobacterial serine protease (Seva TB ES-31); type: biochemical, Mycobacterium tuberculosis H37Ra
M. tb H37Ra bacilli = test: microbe, parasite or virus in culture; type: cell-based, Mycobacterium tuberculosis H37Ra
[2] = Mycobacterium tuberculosis, H37RA, read-out: % Inhibition on culture

Structure (SMILES) | serine protease enzyme activity, effect in words [1] | % Inhibition of Serine protease [1] [%] | Effect on H37Ra culture (LJ slant/Sautons' medium) (M. tb H37Ra bacilli) | bacillary growth on LJ slant and in Sautons' broth, effect in words (M. tb H37Ra bacilli) | Inhibition (%) [1] [%] | Residual activity (%) [1] [%] | further results
O=c1oc(Cl)c(Cl)c2ccccc12 [3,4-Dichloroisocoumarin] | inhibited |  |  |  |  |  | Inhibition (%) ([1]; 10 µM): 90%; Residual activity (%) ([1]; 10 µM): 9.84 ± 0.07%; inhibition at 0.2 µM (M. tb H37Ra bacilli; [2]): 85%
NC(=O)c1cnccn1 [PZA] |  | 0 |  |  |  |  | 
CC[C@@H](CO)NCCN[C@@H](CC)CO [EMB, ethambutol] | inhibited | 70 | No Growth | inhibition of bacillary growth |  |  | 
O=S(=O)(F)Cc1ccccc1 [Phenyl methyl sulphonyl fluoride (PMSF), Phenyl methyl sulphonyl fluoride] | inhibited |  |  |  | 80 | 19.6 ± 0.2 | % Inhibition on culture (M. tb H37Ra bacilli; 20 µM): 72%
NNC(=O)c1ccncc1 [INH, isoniazid] | inhibited | 85 | No Growth | inhibition of bacillary growth |  |  | inhibition of serine protease activity [1]: 85%
O=C(O)CN(CCN(CC(=O)O)CC(=O)O)CC(=O)O [Ethylene diamine tetracetic acid (EDTA), Ethylene diamine tetracetic acid] | inhibited |  |  |  | 65 | 35.3 ± 0.89 | 
c1cnc2c(c1)ccc1cccnc12 [1,10 Phenanthroline] | inhibited |  |  |  | 78 | 22.4 ± 0.47 | inhibition at 10 µM (M. tb H37Ra bacilli; [2]): 81%
Cl.NCCc1ccc(S(=O)(=O)F)cc1 [Pefabloc] | inhibited |  |  |  | 92 | 7.56 ± 0.07 | % Inhibition on culture (M. tb H37Ra bacilli; 10 µM): 88%
[H]/N=C(/N)N[C@H]1[C@H](O)[C@@H](O)[C@H](O[C@@H]2O[C@@H](C)[C@](O)(C=O)[C@H]2O[C@@H]2O[C@@H](CO)[C@H](O)[C@@H](O)[C@@H]2NC)[C@@H](N/C(N)=N\[H])[C@@H]1O [SM, streptomycin] | inhibited | 30 | No Growth | inhibition of bacillary growth |  |  | 
